{"source": "patent US9604900B2", "about": "“Inhibitors of viral replication, their process of preparation and their therapeutical uses” (LABORATOIRE BIODIM, priority 2011, dated 2017)"}
{"test_system": "NL4-3 strain of HIV-1", "assay": "HIV replication inhibition: CellTiter-Glo cyto-protection assay in MT4 cells infected with NL4-3 virus", "type": "cell-based", "settings": "Human immunodeficiency virus 1, NL43, 120 h, concentration giving 50% cyto-protection, 5 days incubation, CellTiter-Glo viability readout", "experimental": "The antiviral activity, particularly against HIV, of compounds according to the invention is evaluated by the protocol described below.\nPreparation of Virus stock of the NL4-3 strain of HIV-1 (Adachi et al, J Virol, 1986, 59(2):284-91).\nThe virus was prepared as described in Lopez et al (Lopez et al, Proc Natl Acad Sci USA., 2006, 103(40):14947-52, by transfecting 2×10^6 293 T cells (CRL-1573, ATCC) with following modifications: 6 μg of NL4-3 proviral DNA molecular clone were mixed with Fugene 6 transfection reagent from Roche, and used according to manufacturer's instructions. Forty eight hours later, transfected cell supernatants were harvested, filtered through 0.45-μm-pore-size filters, quantified for HIV-1 p24 antigen by using a Innotest HIV antigen mAb assay (Ingen) according to manufacturer's instructions, and used in infection experiments.\nSerial dilutions of compounds to be tested were prepared in complete RPMI medium from 10 mM DMSO stock solutions, and distributed in a volume of 20 μl in 96 well Falcon 353072 Microtest™ tissue culture plate, in order to get 0.5% DMSO final concentration in each well, after the addition of infected cells. Control wells contained also 0.5% DMSO final concentration but no compound.\nMT4 cells (from the NIH AIDS Research and Reference Reagent Program) in RPMI complete medium were counted (10×10^6 cells per well in Falcon 353047 Multiwell™ 24 well) and infected for 2 hours at 37°, at a multiplicity of infection (moi) of 0.0001-0.00001. Cells were then centrifuged 3 min at 3000 rpm, and washed two times in 1 ml PBS to remove viruses that have not entered in cells. Infected cells were resuspended in complete RPMI at 1.25×10^6 cells/ml, and 80 μl of infected cells were distributed in each well containing compounds to be tested or control wells. The plates were then incubated at 37° for 5 days.\nAssay used to measure the inhibition of HIV replication by the compounds (according to Gregg S. Jones et al., Antimicrobial Agents and Chemotherapy, 2009, 53 (3): 1194-1203).\nAfter 5 days of incubation, 50 μl of CellTiter-Glo reagent (Promega Biosciences, Inc., Madison Wis., USA) were added to each well. Cell lysis was carried out at room temperature during 10 min, 150 μl of lysates were transferred in Packard Optiplate 96 well, and luminescence was read on a Fluoroskan (Thermo Scientific).", "units": {"EC50": "µM"}}
{"smiles": "Cc1cccc(C(OC(C)(C)C)C(=O)O)c1-c1ccc2c(c1)CCCO2", "note": "(stereo not shown) [Example 11, 2-(tert-butoxy)-2-[2-(3,4-dihydro-2H-1-benzopyran-6-yl)-3-methylphenyl] acetic acid]", "EC50": 48}
{"smiles": "CC(C)(C)OC(C(=O)O)c1c(-c2ccc3c(c2)CCCO3)ccc2ncccc12", "note": "(stereo not shown) [Example 20, 2-(tert-butoxy)-2-[6-(3,4-dihydro-2H-1-benzopyran-6-yl)quinolin-5-yl]acetic acid]", "EC50": 3.8}
{"smiles": "CC(C)(C)OC(C(=O)O)c1cccc(C(F)(F)F)c1-c1ccc2c(c1)CCCO2", "note": "(stereo not shown) [Example 21, 2-(tert-butoxy)-2-[2-(3,4-dihydro-2H-1-benzopyran-6-yl)-3-trifluoromethylphenyl]acetic acid]", "EC50": 9.7}
{"smiles": "Cc1cccc(-c2ccc3c(c2)CCCO3)c1C(OC(C)(C)C)C(=O)O", "note": "(stereo not shown) [Example 22, 2-(tert-butoxy)-2-[2-(3,4-dihydro-2H-1-benzopyran-6-yl)-6-methylphenyl]acetic acid]", "EC50": 26}
{"smiles": "Cc1ccc(C)c(C(OC(C)(C)C)C(=O)O)c1-c1ccc2c(c1)CCCO2", "note": "(stereo not shown) [Example 27, 2-(tert-butoxy)-2-[2-(3,4-dihydro-2H-1-benzopyran-6-yl)-3,6-dimethylphenyl]acetic acid]", "EC50": 1.6}
{"smiles": "CC(C)(C)OC(C(=O)O)c1ccc(-c2cccc(-c3cccnc3)c2)cc1-c1ccc2c(c1)CCCO2", "note": "(stereo not shown) [Example 30, methyl 2-(tert-butoxy)-2-[2-(3,4-dihydro-2H-1-benzopyran-6-yl)-4-[3-(pyridin-3-yl)phenyl]phenyl]acetic acid]", "EC50": 4.2}
{"smiles": "CC(C)(C)OC(C(=O)O)c1c(-c2ccc3c(c2)CCCO3)cccc1C(F)(F)F", "note": "(stereo not shown) [Example 33, 2-(tert-butoxy)-2-[2-(3,4-dihydro-2H-1-benzopyran-6-yl)-6-(trifluoromethyl)phenyl]acetic acid]", "EC50": 25}
{"smiles": "CC(C)(C)OC(C(=O)O)c1c(C(F)(F)F)ccc(F)c1-c1ccc2c(c1)CCCO2", "note": "(stereo not shown) [Example 34, 2-(tert-butoxy)-2-[2-(3,4-dihydro-2H-1-benzopyran-6-yl)-3-fluoro-6-(trifluoromethyl)phenyl]acetic acid]", "EC50": 14}
{"smiles": "CC(C)(C)OC(C(=O)O)c1c(C(F)(F)F)ccc(OCc2ccccc2)c1-c1ccc2c(c1)CCCO2", "note": "(stereo not shown) [Example 35, 2-[3-(benzyloxy)-2-(3,4-dihydro-2H-1-benzopyran-6-yl)-6-(trifluoromethyl)phenyl]-2-(tert-butoxy)acetic acid]", "EC50": 3.2}
{"smiles": "CC1(C)CC=C(c2cccc(C(F)(F)F)c2C(OC(C)(C)C)C(=O)O)CC1", "note": "(stereo not shown) [Example 36, 2-(tert-butoxy)-2-[2-(4,4-dimethylcyclohex-1-en-1-yl)-6-(trifluoromethyl)phenyl]acetic acid]", "EC50": 4.5}
